Test systems include SK-MEL-28 melanoma; HL-60(TB) leukemia; SN12C renal; SW-620 colon; CAKI-1 renal; OVCAR-3 ovarian; A498 renal; HOP-92 NSCLC; UACC-257 melanoma; LOX IMVI melanoma.
Assay in all cases: growth of human tumour cells (NCI), 48 h

Structures are written as SMILES.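 Where inhibition never reached the appropriate level, the endpoint shown equals the highest concentration tested. Otherwise, values were interpolated linearly from a five-concentration, 48-hour dose response in 96-well plates. At the GI50, growth is halved. TGI marks complete inhibition of growth.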

Turning to `CNCCOC(=O)/C=C1/CCC2C(C(O)CC3C(C)(C(=O)OC)CCCC23C)C1C` (stereo not given), the GI50 with SK-MEL-28 melanoma was 0.029 µM; in the assay with HL-60(TB) leukemia it was 0.0261 µM; with SN12C renal, below 0.01 µM; with SW-620 colon, 0.018 µM; in the assay on CAKI-1 renal, 0.0202 µM; with OVCAR-3 ovarian it was below 0.0139 µM. Besides, the GI50 in the assay on A498 renal was 0.0161 µM; in the assay with HOP-92 NSCLC it was 0.0243 µM; in the assay on UACC-257 melanoma, 0.0226 µM; in the assay with LOX IMVI melanoma, 0.0192 µM. Also, the TGI in the assay with SK-MEL-28 melanoma amounted to 0.0758 µM; in the assay on HL-60(TB) leukemia, 0.0638 µM; in the assay on SN12C renal, 0.112 µM; in the assay on SW-620 colon, 0.0394 µM; in the assay with CAKI-1 renal, 0.053 µM; with OVCAR-3 ovarian, 0.0276 µM. Besides, the TGI is 0.0585 µM in the assay on A498 renal, 0.0764 µM with HOP-92 NSCLC, 0.0512 µM in the assay on UACC-257 melanoma and 0.042 µM in the assay on LOX IMVI melanoma.
As for `O=C(O)CCCNS(=O)(=O)c1ccc2ccccc2c1`, the TGI with SK-MEL-28 melanoma, in the assay on HL-60(TB) leukemia, in the assay with SN12C renal, with SW-620 colon, in the assay with CAKI-1 renal and with OVCAR-3 ovarian was above 100 µM in each case. Besides, the TGI with A498 renal, in the assay on HOP-92 NSCLC, with UACC-257 melanoma and in the assay on LOX IMVI melanoma was above 100 µM each time.
As for `O=C(NC1(C(=O)O)CC1c1ccccc1)c1ccccc1` (stereo not given), the TGI in the assay on SK-MEL-28 melanoma, in the assay on HL-60(TB) leukemia, with SN12C renal, in the assay on SW-620 colon, with CAKI-1 renal and in the assay with OVCAR-3 ovarian was above 100 µM in each case. The TGI in the assay on A498 renal, in the assay on HOP-92 NSCLC, in the assay with UACC-257 melanoma and in the assay on LOX IMVI melanoma was above 100 µM in each case.
Take `Cc1c(O)c(=O)ccn1CCO`: the TGI with SK-MEL-28 melanoma, in the assay with HL-60(TB) leukemia, in the assay with SN12C renal, in the assay with SW-620 colon, with CAKI-1 renal and in the assay with OVCAR-3 ovarian was above 100 µM throughout. For the same compound, the TGI in the assay on A498 renal, in the assay on HOP-92 NSCLC, in the assay on UACC-257 melanoma and in the assay with LOX IMVI melanoma was above 100 µM each time.
On to `COc1cc2c3c(n(C)c(=O)c2cc1OC)-c1cc2c(cc1/C3=C/[C@H](N)CCCCN)OCO2`, for which the GI50 was 1.89 µM with SK-MEL-28 melanoma; 13.4 µM with HL-60(TB) leukemia; 0.662 µM in the assay with SN12C renal; 0.595 µM in the assay with SW-620 colon; 1.23 µM in the assay on CAKI-1 renal; 1.45 µM in the assay with OVCAR-3 ovarian. Besides, the GI50 with A498 renal is 4.72 µM; in the assay on HOP-92 NSCLC, 4.48 µM; in the assay with UACC-257 melanoma it was 1.98 µM; in the assay on LOX IMVI melanoma it was 0.63 µM. Also, the TGI is 11.2 µM in the assay on SK-MEL-28 melanoma; above 100 µM in the assay with HL-60(TB) leukemia; 6.39 µM in the assay with SN12C renal; above 37.9 µM with SW-620 colon; 11.5 µM with CAKI-1 renal; 9.89 µM in the assay with OVCAR-3 ovarian. Besides, the TGI in the assay on A498 renal is 22.7 µM; in the assay on HOP-92 NSCLC, above 50.9 µM; in the assay on UACC-257 melanoma, 11.1 µM; with LOX IMVI melanoma, 2.37 µM.
For `COc1cc2c(c(OC)c1OC)-c1ccc(SC)c(=O)cc1C(CC(=O)Oc1cccc(C#N)c1)C2` (stereo not given), the TGI is above 100 µM in the assay on SK-MEL-28 melanoma; 2.35 µM in the assay on HL-60(TB) leukemia; above 77.7 µM with SN12C renal; above 100 µM in the assay on SW-620 colon; above 100 µM in the assay on CAKI-1 renal; 0.794 µM in the assay on OVCAR-3 ovarian. Further, the TGI was 0.522 µM in the assay on A498 renal, above 100 µM in the assay on HOP-92 NSCLC, above 100 µM in the assay with UACC-257 melanoma and above 33.2 µM with LOX IMVI melanoma.
For `COC(=O)[C@@H]1CCCN1C(=O)[C@H]1CCCN1C(=O)[C@@H](Cc1c[nH]c2ccccc12)NC(=S)Nc1cc(C(F)(F)F)cc(C(F)(F)F)c1`, the GI50 is 3.05 µM with SK-MEL-28 melanoma; 2.7 µM in the assay with HL-60(TB) leukemia; 3.14 µM in the assay with SN12C renal; 3.19 µM in the assay with SW-620 colon; 2.75 µM in the assay with CAKI-1 renal; 2.48 µM in the assay with OVCAR-3 ovarian. The GI50 with A498 renal is 1.01 µM; in the assay with HOP-92 NSCLC, 1.12 µM; with UACC-257 melanoma it was 2.5 µM; with LOX IMVI melanoma it was 1.95 µM. Further, the TGI in the assay on SK-MEL-28 melanoma is 10.2 µM; with HL-60(TB) leukemia it was 6.35 µM; in the assay on SN12C renal, 10.9 µM; in the assay with SW-620 colon, 11.2 µM; in the assay with CAKI-1 renal it was 8.99 µM; with OVCAR-3 ovarian, 5.71 µM. In addition, the TGI in the assay on A498 renal was 7.11 µM; in the assay on HOP-92 NSCLC it was 3.43 µM; in the assay with UACC-257 melanoma it was 6.99 µM; in the assay on LOX IMVI melanoma, 4.29 µM.
On to `COc1cc2ncn(-c3cc(OCc4ccccc4S(C)(=O)=O)c(C#N)s3)c2cc1OC`, for which the GI50 in the assay on SK-MEL-28 melanoma, in the assay with HL-60(TB) leukemia, with SN12C renal, in the assay on SW-620 colon, in the assay with CAKI-1 renal and with OVCAR-3 ovarian was above 25 µM each time. Also, the GI50 in the assay with A498 renal is above 25 µM; in the assay with HOP-92 NSCLC, above 14.2 µM; with UACC-257 melanoma it was above 25 µM; with LOX IMVI melanoma, above 25 µM. For the same compound, the TGI in the assay on SK-MEL-28 melanoma, with HL-60(TB) leukemia, in the assay with SN12C renal, with SW-620 colon, in the assay on CAKI-1 renal and with OVCAR-3 ovarian was above 25 µM in each case. The TGI in the assay on A498 renal, in the assay with HOP-92 NSCLC, in the assay with UACC-257 melanoma and in the assay with LOX IMVI melanoma was above 25 µM each time.
As to `CN(C)CCNC(=O)c1nc([N+](=O)[O-])cn1C`, the TGI with SK-MEL-28 melanoma, in the assay on HL-60(TB) leukemia, with SN12C renal, with SW-620 colon, with CAKI-1 renal and with OVCAR-3 ovarian was above 100 µM each time. Besides, the TGI in the assay with A498 renal, with HOP-92 NSCLC, with UACC-257 melanoma and with LOX IMVI melanoma was above 100 µM in each case.
Take `COC(=O)C1=Cc2c(cc(OC)c(OC)c2OC)[C@H](c2ccc(OC)c(OC)c2OC)C1C(=O)OC` (stereo not given in full): the TGI in the assay with SK-MEL-28 melanoma, in the assay with HL-60(TB) leukemia, in the assay on SN12C renal, with SW-620 colon, with CAKI-1 renal and in the assay on OVCAR-3 ovarian was above 100 µM each time. Also, the TGI in the assay on A498 renal, in the assay with HOP-92 NSCLC, in the assay with UACC-257 melanoma and in the assay with LOX IMVI melanoma was above 100 µM throughout.
For `Nc1nc(SCCC/C=C/I)nc2c1ncn2C1OC(CO)C(O)C1O` (stereo not given), the TGI with SK-MEL-28 melanoma, with HL-60(TB) leukemia, with SN12C renal, with SW-620 colon, in the assay with CAKI-1 renal and in the assay on OVCAR-3 ovarian was above 202 µM throughout. Besides, the TGI in the assay on A498 renal, in the assay on HOP-92 NSCLC, with UACC-257 melanoma and in the assay with LOX IMVI melanoma was above 202 µM throughout.

Values taken from PubChem BioAssay (NCI).
